Measurements published in ChEMBL document CHEMBL1201862, “PubChem BioAssay data set” (2004).
Active and inactive are the calls of the source.

Key:
[1] = HepG2 cell cytotoxicity, dose response, cytotoxicity control, ATP luminescence, cherry-pick, set 6 (AID 1053125); format: functional, cell-based
cells = settings: HEK293
[2] = target: COUP transcription factor 2 (Homo sapiens, UniProt P24468); experiment: Luminescence-based cell-based high throughput dose response assay to identify inhibitors of COUP-TFII (NR2F2).; format: functional;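 note: HEK293 cells transiently cotransfected with COUP-TFII expression vector and reporter; luciferase reporter luminescence driven by COUP-TFII from the pX2-168 reporter plasmid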
Chain of COUP transcription factor 2 (P24468 whole entry): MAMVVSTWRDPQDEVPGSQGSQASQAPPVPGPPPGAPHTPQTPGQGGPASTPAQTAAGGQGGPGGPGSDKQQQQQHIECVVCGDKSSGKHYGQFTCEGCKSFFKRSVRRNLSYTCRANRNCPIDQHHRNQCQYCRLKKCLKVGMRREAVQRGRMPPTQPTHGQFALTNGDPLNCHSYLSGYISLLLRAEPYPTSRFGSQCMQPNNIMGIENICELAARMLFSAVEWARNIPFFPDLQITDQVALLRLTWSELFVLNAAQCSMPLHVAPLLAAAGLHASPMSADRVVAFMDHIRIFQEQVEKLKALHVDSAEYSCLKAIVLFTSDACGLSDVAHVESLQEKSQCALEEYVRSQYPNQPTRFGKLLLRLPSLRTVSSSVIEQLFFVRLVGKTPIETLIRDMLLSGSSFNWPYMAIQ

[3] = target: T1, Heat shock factor protein 1 (Mus musculus, UniProt P38532); experiment: HSF1 potentiators in luciferase reporter cells, confirmation, cell-based, NIH3T3, luminescence, dose retest (AID 435004); format: functional;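 note: stress induced by proteasome inhibitor MG132 added 30 min after compound; luciferase reporter driven by HSF1 response element in NIH3T3 cells; actives raise luminescence as potentiators of the MG132 stress response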
T1 sequence (P38532 whole entry): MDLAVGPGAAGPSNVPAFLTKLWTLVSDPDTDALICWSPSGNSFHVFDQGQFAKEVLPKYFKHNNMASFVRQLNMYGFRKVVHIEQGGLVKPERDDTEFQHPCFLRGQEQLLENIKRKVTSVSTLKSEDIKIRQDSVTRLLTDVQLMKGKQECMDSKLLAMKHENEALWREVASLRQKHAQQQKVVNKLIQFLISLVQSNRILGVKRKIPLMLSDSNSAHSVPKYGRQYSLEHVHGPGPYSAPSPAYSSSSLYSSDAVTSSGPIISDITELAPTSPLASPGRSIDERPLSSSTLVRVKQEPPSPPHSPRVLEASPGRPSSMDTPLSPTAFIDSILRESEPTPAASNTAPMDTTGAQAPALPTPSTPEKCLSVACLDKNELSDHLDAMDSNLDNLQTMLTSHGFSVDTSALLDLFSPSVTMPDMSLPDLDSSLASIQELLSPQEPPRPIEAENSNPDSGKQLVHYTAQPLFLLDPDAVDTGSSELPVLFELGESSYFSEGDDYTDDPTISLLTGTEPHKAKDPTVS

[4] = growth suppression of beta-catenin-knockout colon cells, dose response, cell-based, HCT116, human colon tumor (AID 1045); format: functional;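 note: HCT116 colon tumor cells with beta catenin knocked out; cells exposed to compound for 60 hours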
Protein skinhead-1 = target: T2, Protein skinhead-1 (Caenorhabditis elegans, UniProt P34707); format: functional
T2 sequence (P34707 whole entry): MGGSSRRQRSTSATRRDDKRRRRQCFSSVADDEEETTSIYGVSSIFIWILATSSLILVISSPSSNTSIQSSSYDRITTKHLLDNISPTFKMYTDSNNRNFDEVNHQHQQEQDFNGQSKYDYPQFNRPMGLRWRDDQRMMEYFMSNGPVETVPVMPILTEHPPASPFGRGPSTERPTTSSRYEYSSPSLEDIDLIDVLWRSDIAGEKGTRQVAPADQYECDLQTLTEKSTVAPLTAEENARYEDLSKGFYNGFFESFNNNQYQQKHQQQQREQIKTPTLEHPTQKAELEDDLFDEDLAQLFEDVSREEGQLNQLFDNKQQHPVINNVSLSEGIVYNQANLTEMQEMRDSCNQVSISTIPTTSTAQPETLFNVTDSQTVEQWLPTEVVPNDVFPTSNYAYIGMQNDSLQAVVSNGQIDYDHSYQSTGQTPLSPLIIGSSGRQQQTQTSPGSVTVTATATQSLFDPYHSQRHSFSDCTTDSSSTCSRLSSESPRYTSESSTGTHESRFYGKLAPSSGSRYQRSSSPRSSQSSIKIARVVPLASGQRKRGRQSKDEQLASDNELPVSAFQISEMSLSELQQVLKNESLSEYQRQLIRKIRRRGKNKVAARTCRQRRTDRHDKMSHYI

[5] = growth suppression of PTEN-null colon cells, dose response, cell-based, HCT116 PTEN knockout (AID 1047); format: functional;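 note: HCT116 colon tumor cells with PTEN knocked out; cells exposed to compound for 60 hours before readout; potency for loss of cell viability measured by luminescence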
[6] = inhibitors of PGC1a acetylation in cells, dose response, cell-based, cherry-picked samples (AID 720514); format: functional;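 note: potency may reflect raised or lowered acetylation signal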
[7] = ADAM10 inhibitors, peptide cleavage, dose response, biochemical, QFRET (AID 743254);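 note: ADAM10 enzyme with the DM2 quenched FRET peptide as substrate; EDANS fluorescence gain as the protease cuts the substrate; inhibitor potency against ADAM10 proteolytic activity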
[8] = target: Disintegrin and metalloproteinase domain-containing protein 17 (Homo sapiens, UniProt P78536); experiment: ADAM17 protease inhibitors, dose response, counter-screen for ADAM10 exosite inhibitor project, biochemical, quenched FRET substrate (AID 743253)
Chain of Disintegrin and metalloproteinase domain-containing protein 17 (P78536 whole entry, the tested form may be a part): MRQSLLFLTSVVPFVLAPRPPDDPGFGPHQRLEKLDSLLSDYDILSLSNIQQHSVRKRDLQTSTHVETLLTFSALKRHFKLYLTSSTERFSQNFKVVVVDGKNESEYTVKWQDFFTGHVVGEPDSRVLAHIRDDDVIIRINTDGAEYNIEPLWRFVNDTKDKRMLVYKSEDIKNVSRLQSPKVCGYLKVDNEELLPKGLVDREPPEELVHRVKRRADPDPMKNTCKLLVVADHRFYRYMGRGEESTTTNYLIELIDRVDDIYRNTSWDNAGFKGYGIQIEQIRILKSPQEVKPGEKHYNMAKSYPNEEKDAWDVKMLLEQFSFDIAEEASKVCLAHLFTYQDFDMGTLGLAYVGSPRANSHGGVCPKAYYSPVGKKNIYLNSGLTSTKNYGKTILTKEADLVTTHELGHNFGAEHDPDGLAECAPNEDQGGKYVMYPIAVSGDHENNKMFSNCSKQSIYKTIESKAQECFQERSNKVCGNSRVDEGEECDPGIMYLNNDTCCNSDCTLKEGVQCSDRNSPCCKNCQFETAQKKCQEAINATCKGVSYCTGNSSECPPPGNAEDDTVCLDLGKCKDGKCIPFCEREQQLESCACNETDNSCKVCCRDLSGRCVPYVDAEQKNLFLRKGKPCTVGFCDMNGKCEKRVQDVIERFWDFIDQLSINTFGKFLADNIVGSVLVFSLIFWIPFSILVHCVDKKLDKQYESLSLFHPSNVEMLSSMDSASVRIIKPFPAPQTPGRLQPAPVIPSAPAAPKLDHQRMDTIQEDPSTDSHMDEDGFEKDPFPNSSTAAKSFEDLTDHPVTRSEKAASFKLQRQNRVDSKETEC

[9] = IGROV1 ovarian cancer cell cytotoxicity, dose response, PAX8 inhibitor project, plate reader, dry powder samples (AID 743043); format: functional, cell-based; settings: IGROV-1
[10] = cytotoxicity in COV362 ovarian cancer cells, dose response, cytotoxicity control for PAX8 inhibitor project, cell-based, plate reader, dry powder, SA12 (AID 743144); format: functional
[11] = PAX2 cell-based inhibition, dose response, selectivity assay for PAX8 inhibitor project, plate reader, dry powder samples (AID 743048); format: functional;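 note: HEK293 cells carrying a WT1 promoter luciferase reporter driven by expressed Pax2; potency is for inhibition of Pax2 driven reporter signal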
[12] = PAX5 activity inhibitors, dose response, selectivity assay for PAX8 inhibitor project, cell-based, plate reader, dry powder samples (AID 743047); format: functional;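 note: HEK293 cells carrying a Pax5 driven CD19 promoter luciferase reporter; potency of inhibitors that lower reporter luminescence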
[13] = A2780 ovarian cancer cell cytotoxicity, dose response, cytotoxicity control, plate reader, dry powder samples (AID 743046); format: functional, cell-based
[14] = cytotoxicity in COV434 cells, dose response, cytotoxicity control for PAX8 inhibitor project, cell-based, plate reader, dry powder, SA7 (AID 743145); format: functional
[15] = cytotoxicity in OV-90 ovarian cancer cells, dose response, PAX8 inhibitor project, cell-based, plate reader, dry powder, SA8 (AID 743149); format: functional
Paired box protein Pax-8 = Paired box protein Pax-8 (Homo sapiens, UniProt Q06710); experiment: inhibitors of PAX8-driven TPO luciferase reporter, dose response, RMG-I cells, cherry-pick (AID 687027); format: functional, cell-based;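 note: luciferase reporter driven by Pax8 target thyroperoxidase promoter measured by SteadyGlo luminescence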
Chain of Paired box protein Pax-8 (Q06710 whole entry, the tested form may be a part): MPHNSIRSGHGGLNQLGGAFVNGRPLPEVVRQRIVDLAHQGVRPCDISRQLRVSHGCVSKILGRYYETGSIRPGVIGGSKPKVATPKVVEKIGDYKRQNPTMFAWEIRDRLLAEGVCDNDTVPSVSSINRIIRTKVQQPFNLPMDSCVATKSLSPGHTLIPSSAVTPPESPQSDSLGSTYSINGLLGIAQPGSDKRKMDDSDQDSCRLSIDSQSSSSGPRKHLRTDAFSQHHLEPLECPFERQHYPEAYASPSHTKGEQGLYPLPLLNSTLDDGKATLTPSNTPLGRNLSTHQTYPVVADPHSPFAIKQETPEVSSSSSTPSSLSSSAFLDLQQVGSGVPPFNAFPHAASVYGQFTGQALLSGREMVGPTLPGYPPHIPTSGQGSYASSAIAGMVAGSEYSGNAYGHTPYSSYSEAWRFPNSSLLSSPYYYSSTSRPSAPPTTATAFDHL

[16] = Fluorescence-based cell-based high throughput dose response assay for inhibitors of the interaction of nucleotide-binding oligomerization domain containing 2 (NOD2) and the receptor-interacting serine-threonine kinase 2 (RIPK2).; format: functional; settings: Homo sapiens
[17] = IOSE-T80 ovarian epithelial cell cytotoxicity, dose response, cytotoxicity control for PAX8 inhibitor project, plate reader, dry powder samples (AID 743045); format: functional, cell-based
[18] = NIH:OVCAR-3 ovarian cancer cell cytotoxicity, dose response, PAX8 inhibitor project, plate reader, dry powder samples (AID 743044); format: functional, cell-based
[19] = cytotoxicity dependent on PAX8, dose response, cell-based, plate reader, dry powder (AID 743049); format: functional
[20] = cytotoxicity in OVCAR4 cells, dose response, cytotoxicity control for PAX8 inhibitor project, cell-based, plate reader, dry powder, SA11 (AID 743150); format: functional; settings: OVCAR-4
fMet-Leu-Phe receptor = fMet-Leu-Phe receptor (Homo sapiens, UniProt P21462); experiment: FPR ligands, dose response (AID 519); format: functional
Chain of fMet-Leu-Phe receptor (P21462 whole entry): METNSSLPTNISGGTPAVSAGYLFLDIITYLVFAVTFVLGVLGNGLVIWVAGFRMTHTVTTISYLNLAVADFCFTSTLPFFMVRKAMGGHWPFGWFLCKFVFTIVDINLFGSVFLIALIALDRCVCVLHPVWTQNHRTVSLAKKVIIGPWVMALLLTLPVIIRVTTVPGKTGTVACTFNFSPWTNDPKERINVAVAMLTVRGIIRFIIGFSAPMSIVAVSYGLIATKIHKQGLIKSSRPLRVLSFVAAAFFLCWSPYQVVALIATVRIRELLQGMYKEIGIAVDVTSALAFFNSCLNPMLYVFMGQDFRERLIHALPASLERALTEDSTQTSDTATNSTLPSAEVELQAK

[21] = target: NAD-dependent protein deacylase sirtuin-5, mitochondrial (Homo sapiens, UniProt Q9NXA8); experiment: SIRT5 desuccinylase inhibitors, dose response, biochemical, fluorescence imaging, cherry-pick, set 5 (AID 720591);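 note: desuccinylation of succinyl peptide AMC substrate read as fluorescence after trypsin release; potency of inhibitors that lower fluorescence and may act on trypsin instead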
Chain of NAD-dependent protein deacylase sirtuin-5, mitochondrial (Q9NXA8 whole entry): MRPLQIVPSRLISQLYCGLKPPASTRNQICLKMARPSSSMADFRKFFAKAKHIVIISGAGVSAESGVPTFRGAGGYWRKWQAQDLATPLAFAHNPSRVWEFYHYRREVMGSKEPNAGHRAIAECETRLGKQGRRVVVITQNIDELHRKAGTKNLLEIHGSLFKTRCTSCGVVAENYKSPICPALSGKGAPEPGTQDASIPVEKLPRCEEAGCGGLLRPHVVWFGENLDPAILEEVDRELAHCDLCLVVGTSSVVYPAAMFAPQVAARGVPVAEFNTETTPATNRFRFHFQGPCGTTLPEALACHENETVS

[22] = HEK293 cell cytotoxicity, dose response, cytotoxicity control, cherry-picks, set 5 (AID 1053117); format: functional, cell-based
[23] = HepG2 cell cytotoxicity, dose response, cytotoxicity control, cherry-picks, set 5 (AID 1053118); format: functional, cell-based
[24] = A549 cell cytotoxicity, dose response, cytotoxicity control, cherry-picks, 26 µM top dose (AID 1053119); format: functional, cell-based
[25] = intracellular Trypanosoma cruzi inhibitors in host cells – cell-based, plate reader, cherry-pick samples, set 3, dose response (AID 651818); format: functional;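 note: compounds incubated with infected cells for about four days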

## Cc1ccc(OCC(=O)NNc2c3ccccc3nc3ccccc23)cc1
[1]
  AC50: > 52 µM (inactive)
cells
  AC50: 27.7 µM (active)

## Cc1ccc(-n2nc3c(=O)n(C(C)C(=O)NCc4ccccc4Cl)nc(C)c3c2C)cc1 (centres undefined)
[2]
  IC50: 11.9 µM (inactive)
[3]
  EC50: > 260 µM (inactive)

## Cc1[nH]c2ccccc2c1C(=O)/C=C/c1ccccc1
[4]
  EC50: 19.2 µM (active)
Protein skinhead-1
  IC50: > 100 µM (inactive)
[5]
  EC50: 22 µM (active)
[6]
  AC50: 29.8 µM (active)

## CCOC(=O)c1c(NC(=O)CN2C(=O)NC(C)(c3ccc(OC(F)F)cc3)C2=O)sc(C)c1C (centres undefined)
[7]
  IC50: > 69.5 µM (inactive)
[8]
  IC50: > 69.5 µM (inactive)

## Cc1cccc2sc(N(CCCN(C)C)C(=O)CCS(=O)(=O)c3ccccc3)nc12
[9]
  AC50: 11.5 µM (active)
[10]
  AC50: 20.3 µM (active)
[11]
  AC50: 35.7 µM (active)
[12]
  AC50: 43.1 µM (active)
[13]
  AC50: 6.9 µM (active)
[14]
  AC50: 8.43 µM (active)
[15]
  AC50: 17.1 µM (active)
Paired box protein Pax-8
  AC50: 6.18 µM (active)
[16]
  IC50: 6.59 µM (active)
[17]
  AC50: 21.8 µM (active)
[18]
  AC50: 8.92 µM (active)
[19]
  AC50: 7.67 µM (active)
[20]
  AC50: 34.8 µM (active)

## CCCC(=O)Nc1cc(-c2cn3cccnc3n2)ccc1OC
fMet-Leu-Phe receptor
  Ki: > 66.7 µM (inactive)

## CN(C)CCN(Cc1cccs1)S(=O)(=O)c1csc(C(N)=O)c1
[21]
  AC50: > 30 µM (inactive)

## C[C@H]1CN([C@@H](C)CO)C(=O)c2cccc(NC(=O)Nc3ccc(C(F)(F)F)cc3)c2O[C@@H]1CN(C)C(=O)Nc1cccc2ccccc12
[22]
  AC50: 19.8 µM (active)
[23]
  AC50: 25 µM (active)
[24]
  AC50: 29.7 µM (active)
[25]
  AC50: 4.5 µM (active)
